Experimental data as given in PubChem BioAssay (NCI).
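In this assay, cells in 96-well plates receive the compound at five concentrations for 48 hours. Endpoints are linearly interpolated between the surrounding concentrations. At the TGI there is no net growth.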

Columns and labels:
Test in all cases: DTP human tumour cell line panel, 48 h
HS 578T breast = test system: HS 578T breast
MOLT-4 leukemia = test system: MOLT-4 leukemia
UACC-62 melanoma = test system: UACC-62 melanoma
ACHN renal = test system: ACHN renal
OVCAR-8 ovarian = test system: OVCAR-8 ovarian
EKVX NSCLC = test system: EKVX NSCLC
SR leukemia = test system: SR leukemia
OVCAR-3 ovarian = test system: OVCAR-3 ovarian

SMILES | TGI (HS 578T breast) [µM] | TGI (MOLT-4 leukemia) [µM] | TGI (UACC-62 melanoma) [µM] | TGI (ACHN renal) [µM] | TGI (OVCAR-8 ovarian) [µM] | TGI (EKVX NSCLC) [µM] | TGI (SR leukemia) [µM] | TGI (OVCAR-3 ovarian) [µM]
CCOC(=O)c1ccc2nc3n(c2c1)C(c1c(F)cccc1F)SC3 (configuration not stated) | > 100 | > 100 | > 100 | > 100 | > 100 | > 100 | > 100 | > 100
COC(=O)N[C@@H]1C[C@H]2CC[C@]1(O[Si](C(C)C)(C(C)C)C(C)C)C(=O)C2 | 31.5 | > 100 | 44.7 | 45.7 | 63.4 | 31.8 | > 100 | 39.7
CC(=O)NC1C(OCc2ccccc2)OC(CO)C(O)C1OC(C)C(=O)NC(C(=O)NC(CCC(=O)NCCCNc1ccc([N+](=O)[O-])c2[nH]c3ccccc3c(=O)c12)C(N)=O)C(C)C (configuration not stated) | > 100 | > 100 | > 100 | > 100 | > 100 | > 100 |  | > 100
CC1(C)C2CC3C(C)(C2)C31c1cc(Cl)ccc1N (configuration not stated) |  | 22.7 | 29.1 | 29 | 30.3 | 33 | 22 | 31.2
NC1(c2cc3ccccc3s2)CCCCCC1 |  | 32.6 | 31.9 | 33.4 | 35.8 | 33.2 | 36.6 | 29.2
CCn1c(CCCc2nc3c([nH]2)c(=O)n(C)c(=O)n3C)nc2c1c(=O)n(C)c(=O)n2C | > 100 | > 100 | > 100 | > 100 | > 100 | > 100 |  | > 100
CC1(C)CCCCCC(O)C(O)CCC(C)(C)C1=O (configuration not stated) | > 100 | > 100 | > 100 | > 100 | > 100 | > 100 | > 100 | > 100
COc1ccc(NC(=O)CSC(=O)c2ccccc2)c(SCCSSCCSc2cc(OC)ccc2NC(=O)CSC(=O)c2ccccc2)c1 | > 100 | > 100 | > 100 | > 100 | > 100 | > 100 | > 100 | > 100
[N-]=[N+]=C(C(=O)CN1CCCC1=O)S(=O)(=O)c1ccccc1 | > 100 | > 100 | > 100 | > 100 | > 100 | > 100 | > 100 | > 100
CC(=O)C(CN1C(=O)c2ccccc2C1=O)C(C)=O | > 100 |  | > 100 | > 100 | > 100 | > 100 |  | > 100
CCCCCCCCCCCC(=O)N(CCCCCCCCC)CC(O)C(O)C(OC1OC(CO)C(O)C(O)C1O)C(O)CO (configuration not stated) | > 100 | 40.3 | 34.1 | 32.1 | 39.3 | 31.5 | 42.4 | 40.3
COC(=O)/C1=C/C=C\C[C@@]2(C)CC(c3ccoc3)OC(=O)[C@@H]2CC[C@H]1C (some centres not stated) | > 25 | > 25 | > 25 | > 25 | > 25 | > 25 | > 25 | > 25
COc1cc2nc(-c3cccs3)nc(Nc3ccccc3C(=O)NN)c2cc1OC | > 100 | > 100 | > 100 | > 100 | > 100 | > 100 | > 100 | > 100
O=C(O)c1cc(NCc2cc(O)ccc2O)ccc1O | > 100 |  | > 100 | > 100 |  | > 100 |  | > 100
CCOP(=O)(OCC)/C(=C/n1c(=S)[nH]c2ccccc21)C(=O)OC | > 100 | > 100 | > 100 | > 100 | > 100 | > 100 | > 100 | 
O=C(O)C(Cc1ccccc1)Cc1ccccc1 | > 100 | > 100 | > 100 | > 100 | > 100 | > 100 |  | > 100
COC(=O)C1=C(C)NC(C)=C(C(=O)OC)C1c1cccc(/[N+]([O-])=C/c2ccccc2)c1 | > 100 | 68 | > 100 | 31.6 | 32.7 | > 100 | 62 | 31.6
OC(CCN1CCN(CCOC(c2ccccc2)c2ccccc2)CC1)c1ccccc1 (configuration not stated) | 45 |  | 30.2 | > 100 | 33 | 45.8 |  | 81.1
COC(=O)/C=C1\C(CO[Si](C)(C)C(C)(C)C)OC(n2cc(C)c(=O)n(C)c2=O)C1O[Si](C)(C)C(C)(C)C (configuration not stated) | > 100 | > 100 | > 100 | > 100 | > 100 | > 100 |  | > 100
CCOC(=O)c1sc2nc(SC)nc3c2c1NCN3C | 59.4 |  | > 100 | 59.3 | 25.9 |  |  | > 100
CCCCCCc1ccc(CCCCCCCC(=O)O)o1 |  | 36.1 |  | > 100 | > 100 | > 100 | > 100 | > 100
COc1ccc(C2N(c3ccc(C)c(N=C=O)c3)C(=O)N3C(c4ccc(OC)cc4)N(c4ccc(C)c(N=C=O)c4)C(=O)N23)cc1 (configuration not stated) |  | > 100 |  | > 100 | > 100 | > 100 | > 100 | > 100
CN(C)C(=O)N1N[C@H](c2ccccc2)[C@@H]1c1ccccc1 |  | > 100 | > 100 | > 100 | > 100 | > 100 |  | > 100
CCN(CC)/N=C\c1c2ccccc2cc2ccccc12 | > 100 | > 100 | > 100 | > 100 | > 100 | > 100 | > 100 | 
CC(C)OC1=C(CC2(C)OCCO2)C(=O)C12OCCO2 | > 100 | > 100 | > 100 | > 100 | > 100 | > 100 |  | > 100
COP(=O)(CP(=O)(OC)OCCC(C)CCC=C(C)C)OC (configuration not stated) |  | > 100 |  | > 100 | > 100 | > 100 |  | > 100
O=c1oc2ccccc2c(O)c1C(c1ccc(OCc2ccccc2)cc1)c1c(O)c2ccccc2oc1=O | > 100 | > 100 | > 100 | 47.9 | > 100 | > 100 |  | > 100
